From patent US10538487B2, “Sulfonylureas and related compounds and use of same” (priority 2015, dated 2020)
Several values for one entry are separate records, joined by “and”; a condition that tells them apart may be missing. Equal entries are not always repeated.

Assay: Single dose pharmacokinetic study in mice (iv 4 mg/Kg, po 20 mg/Kg), plasma concentration post-dosing
Type: in vivo, mouse
Conditions: mouse
Protocol: This is advantageous leading to comparatively lower doses or less frequent administration. The procedure followed was: Male C57BL/6 mice were used at 7-9 weeks age with 3 animals per group. Mice were dosed with test compound using single intravenous bolus or oral gavage. Blood samples were taken via submandibular or saphenous vein for analysis of plasma concentrations of compound by LC-MS/MS at the following timepoints: IV (3 mice): 0.083, 0.25, 0.5, 1, 2, 4, 8 and 24 hours post dosing, PO (3 mice): 0.25, 0.5, 1, 2, 4, 8 and 24 hours post dosing. LC-MS/MS method for the quantitative determination of test compound in corresponding biological matrix was developed. […] The results are shown graphically in FIGS. 1A to 1C (MCC950) and FIGS. 2A to 2C (MCC7840).

[1] = IV 4 mg/Kg, individual mice M1-M3, 4 mg/kg
[2] = PO 20 mg/Kg, individual mice M4-M6, 20 mg/kg

Question: For `CC(C)n1ccc(S(=O)(=O)NC(=O)Nc2c3c(cc4c2CCC4)CCC3)n1` [MCC_007840_002], which MRT last (male, C57BL/6, mouse, plasma, po, 20 mg/kg, PO 20 mg/Kg, mean of 3 mice, read-out: MRT0-last, Mean PO) is on record?
Answer: 6.43 h

Question: What about the half-life (male, C57BL/6, mouse, plasma, po, 20 mg/kg, PO 20 mg/Kg, mean of 3 mice, read-out: T1/2, Mean PO (converted)) of the same molecule?
Answer: 5.02 h

Question: And the Tmax (male, C57BL/6, mouse, plasma, po, 20 mg/kg, PO 20 mg/Kg, mean of 3 mice, read-out: Tmax, Mean PO)?
Answer: 0.25 h

Question: And the bioavailability (male, C57BL/6, plasma, PO 20 mg/Kg vs IV 4 mg/Kg, Mean PO, read-out: Bioavailability)?
Answer: 67.2%

Question: And the “Plasma concentration, IV Time 5 min” value (IV 4 mg/Kg, 5 min post dosing, individual mice M1-M3, 4 mg/kg)?
Answer: 41900 ng/mL and 38600 ng/mL

Question: What about the “Plasma concentration, IV Time 0.250 h” value (IV 4 mg/Kg, 0.250 h post dosing, individual mice M1-M3, 4 mg/kg) of the same molecule?
Answer: 29300 ng/mL

Question: And the “Plasma concentration, IV Time 0.500 h” value (IV 4 mg/Kg, 0.500 h post dosing, individual mice M1-M3, 4 mg/kg)?
Answer: 25200 ng/mL and 24500 ng/mL

Question: What about the “Plasma concentration, IV Time 1.00 h” value (IV 4 mg/Kg, 1.00 h post dosing, individual mice M1-M3, 4 mg/kg) of the same molecule?
Answer: 18900 ng/mL and 17200 ng/mL

Question: And the “Plasma concentration, IV Time 2.00 h” value (IV 4 mg/Kg, 2.00 h post dosing, individual mice M1-M3, 4 mg/kg)?
Answer: 14700 ng/mL and 19900 ng/mL

Question: What about the “Plasma concentration, IV Time 4.00 h” value (IV 4 mg/Kg, 4.00 h post dosing, individual mice M1-M3, 4 mg/kg) of the same molecule?
Answer: 8550 ng/mL and 8590 ng/mL

Question: And the “Plasma concentration, IV Time 8.00 h” value (IV 4 mg/Kg, 8.00 h post dosing, individual mice M1-M3, 4 mg/kg)?
Answer: 3360 ng/mL and 4440 ng/mL

Question: And the “Plasma concentration, IV Time 24.0 h” value (IV 4 mg/Kg, 24.0 h post dosing, individual mice M1-M3, 4 mg/kg)?
Answer: 122 ng/mL and 130 ng/mL

Question: What about the Tlast (IV 4 mg/Kg, individual mice M1-M3) of the same molecule?
Answer: 24.0 h

Question: What about the AUC0-inf [1] of the same molecule?
Answer: 105.283 µg·h/mL and 116.833 µg·h/mL

Question: And the AUC0-last [1]?
Answer: 104.705 µg·h/mL and 116.222 µg·h/mL

Question: And the AUCExtra [1]?
Answer: 0.770% and 0.549% and 0.523%

Question: What about the AUMCExtra [1] of the same molecule?
Answer: 5.23% and 3.81% and 3.41%

Question: What about the C0 [1] of the same molecule?
Answer: 50100 ng/mL and 44301 ng/mL

Question: And the Cl [1]?
Answer: 0.633 mL/min/kg and 0.571 mL/min/kg

Question: What about the MRT0-inf [1] of the same molecule?
Answer: 4.15 h and 4.40 h

Question: What about the MRT0-last [1] of the same molecule?
Answer: 4.01 h and 4.28 h

Question: What about the T1/2 [1] of the same molecule?
Answer: 3.29 h and 3.26 h

Question: What about the Vdss [1] of the same molecule?
Answer: 0.158 L/kg and 0.151 L/kg

Question: And the “AUCExtra, Mean IV” value (IV 4 mg/Kg, mean of 3 mice)?
Answer: 0.614%

Question: And the “AUMCExtra, Mean IV” value (IV 4 mg/Kg, mean of 3 mice)?
Answer: 4.15%

Question: And the “C0, Mean IV” value (IV 4 mg/Kg, mean of 3 mice)?
Answer: 52245 ng/mL

Question: And the “Tlast, Mean IV” value (IV 4 mg/Kg, mean of 3 mice)?
Answer: 24.0 h

Question: And the “Plasma concentration, PO Time 0.250 h” value (PO 20 mg/Kg, 0.250 h post dosing, individual mice M4-M6, 20 mg/kg)?
Answer: 84300 ng/mL and 27400 ng/mL and 69700 ng/mL

Question: And the “Plasma concentration, PO Time 0.500 h” value (PO 20 mg/Kg, 0.500 h post dosing, individual mice M4-M6, 20 mg/kg)?
Answer: 70300 ng/mL and 24000 ng/mL and 56600 ng/mL

Question: What about the “Plasma concentration, PO Time 1.00 h” value (PO 20 mg/Kg, 1.00 h post dosing, individual mice M4-M6, 20 mg/kg) of the same molecule?
Answer: 60400 ng/mL and 20900 ng/mL and 45700 ng/mL

Question: What about the “Plasma concentration, PO Time 2.00 h” value (PO 20 mg/Kg, 2.00 h post dosing, individual mice M4-M6, 20 mg/kg) of the same molecule?
Answer: 54900 ng/mL and 19100 ng/mL and 53800 ng/mL

Question: And the “Plasma concentration, PO Time 4.00 h” value (PO 20 mg/Kg, 4.00 h post dosing, individual mice M4-M6, 20 mg/kg)?
Answer: 32900 ng/mL and 14100 ng/mL and 32800 ng/mL

Question: What about the “Plasma concentration, PO Time 8.00 h” value (PO 20 mg/Kg, 8.00 h post dosing, individual mice M4-M6, 20 mg/kg) of the same molecule?
Answer: 14100 ng/mL and 12800 ng/mL and 29900 ng/mL

Question: And the “Plasma concentration, PO Time 24.0 h” value (PO 20 mg/Kg, 24.0 h post dosing, individual mice M4-M6, 20 mg/kg)?
Answer: 660 ng/mL and 2370 ng/mL and 1370 ng/mL

Question: And the Tlast (PO 20 mg/Kg, individual mice M4-M6)?
Answer: 24.0 h

Question: And the AUC0-inf [2]?
Answer: 251.697 µg·h/mL and 466.063 µg·h/mL

Question: And the AUC0-last [2]?
Answer: 364.947 µg·h/mL and 226.687 µg·h/mL and 457.808 µg·h/mL

Question: What about the AUCExtra [2] of the same molecule?
Answer: 0.922% and 9.94% and 1.77%

Question: What about the AUMCExtra [2] of the same molecule?
Answer: 5.35% and 32.1% and 7.78%

Question: What about the Cmax [2] of the same molecule?
Answer: 84300 ng/mL and 27400 ng/mL and 69700 ng/mL

Question: What about the MRT0-last [2] of the same molecule?
Answer: 8.07 h and 6.41 h

Question: What about the T1/2 [2] of the same molecule?
Answer: 3.57 h and 7.31 h and 4.18 h

Question: And the “AUCExtra, Mean PO” value (PO 20 mg/Kg, mean of 3 mice)?
Answer: 4.21%

Question: What about the “AUMCExtra, Mean PO” value (PO 20 mg/Kg, mean of 3 mice) of the same molecule?
Answer: 15.1%

Question: And the “Tlast, Mean PO” value (PO 20 mg/Kg, mean of 3 mice)?
Answer: 24.0 h
